# Measured values reported in patent US20120039957A1 (ACURA PHARMACEUTICALS, INC., priority 2010, published 2012).
# Key:
# [1] = for mean time to peak disliking / mean peak disliking effect (Emin), VAS: 480 mg oral tablet, after high-fat breakfast; for mean time to peak disliking: high responders; for mean peak disliking effect (Emin), VAS: high responders (six subjects)
# Method: A total of 49 subjects were enrolled. […] As identified in the randomization schedule for each subject, subjects took each dose of study drug immediately following a standardized high-fat breakfast.
# During the study, each subject completed a 100 point Visual Analog Scale (VAS) “Like/Dislike” Rating Scale at dosing and for up to 6 hours post-dosing where subjects were asked “Do you like or dislike the drug effect you are feeling now?”
# [2] = intestinal pH reduced from pH 8 to pH 5; cited from earlier work
# [3] = at pH 4.8; cited from earlier work
# [4] = in the presence of food, VAS over 6 hours
structure (smiles),measurement,setting,value
"O=C(O)c1cccnc1 [micronized niacin, niacin]",mean time to peak disliking,[1],2.25 h
same,"mean peak disliking effect (Emin), VAS",[1],−28.7 mm
same,high responder subjects (of six) with lower VAS scores than with standard niacin,"[1]; 480 mg, fed, six high responders",five
same,faster time to peak disliking than standard particle size niacin,[1]; [4],25%
same,more substantial disliking effect than standard particle size niacin,[1]; [4],89%
O=C(O)c1cccnc1 [niacin],enhancement of intestinal uptake,[2],approximately five fold
same,fraction non-ionized,[3],50%
"O=C(O)c1cccnc1 [standard niacin, niacin, reference compound]",mean time to peak disliking,[1],3.0 h
same,"mean peak disliking effect (Emin), VAS",[1],−15.3 mm
